Values quoted from earlier work in US6399115B2, “Method and composition for the treatment of benign prostate hypertrophy (BPH) and prevention of prostate cancer” (priority 1999, dated 2002).

Key:
[1] = test system: 5 alpha-reductase; details: human prostatic tissue
[2] = test system: plasma testosterone; details: in vivo
[3] = among the major carotenoids

SMILES: [Zn] [Zinc]
- relationship with 5 alpha-reductase activity [1]: inverse relationship

SMILES: [Cu] [Copper]
- levels of plasma testosterone [2]: reduce

SMILES: CC(C)=CCC/C(C)=C/C=C/C(C)=C/C=C/C(C)=C/C=C/C=C(C)/C=C/C=C(C)/C=C/C=C(\C)CCC=C(C)C [lycopene]
- quenching free oxygen radicals [3]: most effective and significant
